# Assay results reported in ChEMBL document CHEMBL1833871, “3D QSAR and docking study of flavone derivatives as potent inhibitors of influenza H1N1 virus neuraminidase” (Bioorg Med Chem Lett, 2011).
# Biological target: Neuraminidase (Influenza A virus (A/Puerto Rico/8/1934(H1N1)), UniProt P03468)
# Experiment: Inhibition of influenza A virus A/PR/8/34(H1N1) neuraminidase assessed as fluorescent product using MUNANA as substrate after 60 mins by fluorescence analysis
# Chain of Neuraminidase (Influenza A virus (A/Puerto Rico/8/1934(H1N1)), UniProt P03468) (P03468 whole entry): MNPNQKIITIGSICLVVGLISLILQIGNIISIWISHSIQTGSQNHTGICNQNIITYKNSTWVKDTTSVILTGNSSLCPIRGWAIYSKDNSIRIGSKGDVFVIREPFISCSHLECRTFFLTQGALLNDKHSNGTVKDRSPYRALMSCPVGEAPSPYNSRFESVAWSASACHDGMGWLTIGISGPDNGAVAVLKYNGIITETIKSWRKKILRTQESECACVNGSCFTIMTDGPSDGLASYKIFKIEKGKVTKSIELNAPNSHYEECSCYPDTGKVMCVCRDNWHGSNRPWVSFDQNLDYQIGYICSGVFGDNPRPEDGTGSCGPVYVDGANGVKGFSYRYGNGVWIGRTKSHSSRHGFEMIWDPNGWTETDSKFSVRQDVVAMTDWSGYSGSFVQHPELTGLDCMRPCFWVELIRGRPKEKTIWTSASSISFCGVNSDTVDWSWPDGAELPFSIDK
row,SMILES,IC50
1,O=c1cc(-c2ccccc2)oc2c(CN3CCCC3)c(O)cc(O)c12,182 µM
2,CN1CCN(Cc2c(O)cc(O)c3c(=O)cc(-c4ccccc4)oc23)CC1,431 µM
3,O=c1cc(-c2ccccc2)oc2c(CN3CCOCC3)c(O)cc(O)c12,448 µM
4,CC1CCN(Cc2c(O)cc(O)c3c(=O)cc(-c4ccc(O)cc4)oc23)CC1,164 µM
5,O=c1cc(-c2ccccc2)oc2c(CN3CCCC(O)C3)c(O)cc(O)c12 (stereo not given),259 µM
6,O=c1cc(-c2ccc(O)cc2)oc2c(CN3CCC(Cc4ccccc4)CC3)c(O)cc(O)c12,46.1 µM
7,C[C@@H]1COC[C@H](C)N1Cc1c(O)c(O)c(O)c2c(=O)cc(-c3ccccc3)oc12,591 µM
8,CC1CCCCN1Cc1c(O)c(O)c(O)c2c(=O)cc(-c3ccccc3)oc12 (stereo not given),99.7 µM
9,O=c1cc(-c2ccc(O)cc2)oc2c(CN3CCCC3)c(O)cc(O)c12,44.5 µM
10,O=c1cc(-c2ccc(O)cc2)oc2c(CN3CCCC(O)C3)c(O)cc(O)c12 (stereo not given),45.3 µM
11,O=c1cc(-c2ccc(O)cc2)oc2c(CN3CCC(O)CC3)c(O)cc(O)c12,168 µM
12,O=c1cc(-c2ccc(O)c(O)c2)oc2c(CN3CCCCC3)c(O)cc(O)c12,62.9 µM
13,O=c1cc(-c2ccc(O)c(O)c2)oc2c(CN3CCC(CO)CC3)c(O)cc(O)c12,64.2 µM
14,O=c1cc(-c2ccc(O)cc2)oc2c(CN3CCC[C@H]3CO)c(O)cc(O)c12,49.7 µM
15,O=c1cc(-c2ccc(O)c(O)c2)oc2c(CN3CCOCC3)c(O)cc(O)c12,81.9 µM
16,O=c1cc(-c2ccccc2)oc2c(CN3CCC(CO)CC3)c(O)c(O)c(O)c12,470 µM
17,O=c1cc(-c2ccccc2)oc2c(CN3CCCC3)c(O)c(O)c(O)c12,107 µM
18,O=c1cc(-c2ccccc2)oc2c(CN3CCCC(O)C3)c(O)c(O)c(O)c12 (stereo not given),68.2 µM

row,SMILES,IC50
1,O=c1cc(-c2ccc(O)cc2)oc2c(CN3[C@H](O)COC[C@@H]3O)c(O)cc(O)c12,64 µM
2,C[C@@H]1COC[C@H](C)N1Cc1c(O)cc(O)c2c(=O)cc(-c3ccc(O)c(O)c3)oc12,43.5 µM
3,CC1CCCCN1Cc1c(O)cc(O)c2c(=O)cc(-c3ccc(O)c(O)c3)oc12 (stereo not given),161 µM
4,CN1CCN(Cc2c(O)cc(O)c3c(=O)cc(-c4ccc(O)c(O)c4)oc23)CC1,53.8 µM
5,O=c1cc(-c2ccc(O)c(O)c2)oc2c(CN3CCCC(O)C3)c(O)cc(O)c12 (stereo not given),63.6 µM
6,O=c1cc(-c2ccccc2)oc2c(CN3CCN(CCO)CC3)c(O)c(O)c(O)c12,276 µM
7,O=c1cc(-c2ccc(O)cc2)oc2c(CN3CCC(CO)CC3)c(O)cc(O)c12,40.9 µM
8,O=c1cc(-c2ccc(O)cc2)oc2c(CN3CCN(Cc4ccccc4)CC3)c(O)cc(O)c12,48.5 µM
9,CN1CCN(Cc2c(O)cc(O)c3c(=O)cc(-c4ccc(O)cc4)oc23)CC1,148 µM
10,CC1CCCN(Cc2c(O)cc(O)c3c(=O)cc(-c4ccc(O)cc4)oc23)C1 (stereo not given),52.5 µM
11,O=c1cc(-c2ccccc2)oc2c(CN3CCCCC3)c(O)c(O)c(O)c12,104 µM
12,O=c1cc(-c2ccccc2)oc2c(CN3CCC(O)CC3)c(O)c(O)c(O)c12,91.5 µM
13,O=c1cc(-c2ccc(O)cc2)oc2c(CN3CCOCC3)c(O)cc(O)c12,50.5 µM
14,O=c1cc(-c2ccccc2)oc2c(CN3CCC(CO)CC3)c(O)cc(O)c12,83.7 µM
15,CN1CCN(Cc2c(O)c(O)c(O)c3c(=O)cc(-c4ccccc4)oc23)CC1,302 µM
16,O=c1cc(-c2ccccc2)oc2c(CN3CCC(O)CC3)c(O)cc(O)c12,295 µM
17,O=c1cc(-c2ccccc2)oc2c(CN3CCN(CCO)CC3)c(O)cc(O)c12,135 µM
